Assay results from patent US10167279B2 (NOVARTIS AG, priority 2014, dated 2019).

Columns and labels:
b-Raf (V600E) = b-Raf (V600E) (Homo sapiens (Human), UniProt P15056, V600E); assay: In vitro Raf activity determination (Alpha Screen, phospho-MEK), b-Raf (V600E); format: biochemical; details: ATP 10 μM, 60 min pre-incubation, 3 hours reaction
Excerpt: The activity of a compound according to the present invention can be assessed by well-known in vitro & in vivo methods. Raf inhibition data provided herein was obtained using the following procedures.
Sf9 cells co-expressing both proteins were lysed and subjected to immobilized nickel chromatography and eluted with Imidazole. A second column (StrepII binding column) was used and eluted with desthiobiotin. Protein Tags were removed using Prescission enzyme and the protein was further purified using a flowthrough step to remove tags.
Full length MEK1 with an inactivating K97R ATP binding site mutation is utilized as a RAF substrate. The MEK1 cDNA was subcloned with an N-terminal (his)6 tag into a vector for E. Coli expression. The MEK1 substrate was purified from E. Coli lysate by nickel affinity chromatography followed by anion exchange. The final MEK1 preparation was biotinylated (Pierce EZ-Link Sulfo-NHS-LC-Biotin) and concentrated.
The plate was incubated for 60 minutes at room temperature. […] The additions were carried out under dark conditions to protect the detection beads from light. A lid was placed on top of the plate and incubated for 1 hour at room temperature, after which the luminescence was read on a PerkinElmer Envision instrument.

C-Raf FL = C-Raf FL (Homo sapiens (Human), UniProt P04049, Y340E/Y341E); assay: In vitro Raf activity determination (Alpha Screen, phospho-MEK), C-Raf FL (full length, Y340E/Y341E); format: biochemical; details: ATP 1 μM; 60 min pre-incubation; 1 hour reaction; column head does not say FL or TR
Outline: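 Sf9-expressed C-Raf incubated with biotinylated kinase-dead MEK1 (K97R) in 50 mM Tris pH 7.5, 15 mM MgCl2, 0.01% BSA, 1 mM DTT with compound, 60 min at room temperature. Phospho-MEK detected by anti-p-MEK AlphaScreen luminescence; IC50 by non-linear regression.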

C-Raf FL, sequence (P04049 whole entry Y340E/Y341E): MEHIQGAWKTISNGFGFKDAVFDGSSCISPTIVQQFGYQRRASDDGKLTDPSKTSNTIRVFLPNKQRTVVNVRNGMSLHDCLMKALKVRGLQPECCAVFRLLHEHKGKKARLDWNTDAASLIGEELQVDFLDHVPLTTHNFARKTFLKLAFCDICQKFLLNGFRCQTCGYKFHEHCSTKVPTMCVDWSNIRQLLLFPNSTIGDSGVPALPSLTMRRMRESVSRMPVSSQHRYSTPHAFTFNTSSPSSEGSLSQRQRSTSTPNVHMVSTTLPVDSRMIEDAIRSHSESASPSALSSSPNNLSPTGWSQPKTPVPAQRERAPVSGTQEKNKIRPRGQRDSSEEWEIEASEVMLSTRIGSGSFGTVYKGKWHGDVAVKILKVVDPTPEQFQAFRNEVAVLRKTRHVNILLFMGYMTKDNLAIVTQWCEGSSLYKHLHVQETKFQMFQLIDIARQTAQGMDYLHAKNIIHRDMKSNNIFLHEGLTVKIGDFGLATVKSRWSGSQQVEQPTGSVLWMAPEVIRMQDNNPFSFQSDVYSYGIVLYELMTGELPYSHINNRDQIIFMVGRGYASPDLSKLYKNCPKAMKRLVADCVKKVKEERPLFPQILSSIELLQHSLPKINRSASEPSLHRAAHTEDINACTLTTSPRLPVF
C-Raf FL, sequence (P63104 whole entry partner): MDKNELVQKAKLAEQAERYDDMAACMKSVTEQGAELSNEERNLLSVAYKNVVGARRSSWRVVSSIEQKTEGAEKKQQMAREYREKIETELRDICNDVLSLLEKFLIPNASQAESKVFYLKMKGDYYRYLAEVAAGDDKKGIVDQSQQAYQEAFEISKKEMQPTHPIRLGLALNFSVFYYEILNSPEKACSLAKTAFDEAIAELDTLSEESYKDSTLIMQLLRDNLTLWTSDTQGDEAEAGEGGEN
b-Raf (V600E), sequence (P15056 whole entry V600E): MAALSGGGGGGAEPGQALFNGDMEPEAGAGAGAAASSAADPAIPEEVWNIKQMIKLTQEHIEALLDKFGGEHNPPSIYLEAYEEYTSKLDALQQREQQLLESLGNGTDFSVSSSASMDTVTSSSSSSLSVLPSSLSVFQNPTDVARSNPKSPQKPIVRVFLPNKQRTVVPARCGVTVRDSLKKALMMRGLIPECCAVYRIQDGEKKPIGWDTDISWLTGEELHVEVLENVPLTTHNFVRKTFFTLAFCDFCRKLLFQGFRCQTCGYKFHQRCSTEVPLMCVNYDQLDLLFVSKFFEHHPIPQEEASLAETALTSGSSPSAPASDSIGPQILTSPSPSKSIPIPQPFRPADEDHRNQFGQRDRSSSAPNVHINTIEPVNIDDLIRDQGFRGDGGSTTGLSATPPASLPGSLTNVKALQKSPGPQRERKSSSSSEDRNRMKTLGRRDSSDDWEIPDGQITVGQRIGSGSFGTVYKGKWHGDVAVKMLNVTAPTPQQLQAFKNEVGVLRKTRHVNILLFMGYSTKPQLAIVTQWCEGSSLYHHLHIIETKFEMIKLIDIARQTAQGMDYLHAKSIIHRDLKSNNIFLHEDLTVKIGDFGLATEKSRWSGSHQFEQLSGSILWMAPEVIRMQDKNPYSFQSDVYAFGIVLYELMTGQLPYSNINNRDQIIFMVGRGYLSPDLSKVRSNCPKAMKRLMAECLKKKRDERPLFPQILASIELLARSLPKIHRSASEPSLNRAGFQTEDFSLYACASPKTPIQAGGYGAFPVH

IC50 (b-Raf (V600E)) [nM]	IC50 (C-Raf FL) [nM]	SMILES
1.45	0.258	CCOc1ncc(-c2cc(NC(=O)c3cnnc(C(F)(F)F)c3)cnc2C)cc1C1(C)COC1 [Example 66, N-(6′-ethoxy-2-methyl-5′-(3-methyloxetan-3-yl)-[3,3′-bipyridin]-5-yl)-6-(trifluoromethyl)pyridazine-4-carboxamide]
0.934	0.303	COc1ncc(-c2cc(NC(=O)c3cc(C(F)(F)F)ccn3)ccc2C)cc1C1(F)COC1 [Example 88, N-(3-(5-(3-fluorooxetan-3-yl)-6-methoxypyridin-3-yl)-4-methylphenyl)-4-(trifluoromethyl)picolin-amide]
6.88	0.628	COc1cc(-c2cc(NC(=O)c3cccc(C(F)(F)F)c3)cnc2C)cc(C2COC2)c1 [Example 20, N-(5-(3-methoxy-5-(oxetan-3-yl)phenyl)-6-methylpyridin-3-yl)-3-(trifluoromethyl)-benzamide]
23.4	3.09	COc1ncc(-c2cc(NC(=O)c3ccnc(C(C)(C)O)c3)ccc2C)cc1C1(O)COC1 [Example 73, N-(3-(5-(3-hydroxyoxetan-3-yl)-6-methoxypyridin-3-yl)-4-methylphenyl)-2-(2-hydroxypropan-2-yl)isonicotinamide]
4.95	0.637	Cc1ccc(NC(=O)c2ccnc(C(C)(C)C#N)c2)cc1-c1cc(C2(C)COC2)c2nccn2n1 [Example 29, 2-(2-cyanopropan-2-yl)-N-(4-methyl-3-(8-(3-methyloxetan-3-yl)imidazo[1,2-b]pyridazin-6-yl)phenyl)isonicotinamide]
0.966	0.297	Cc1ccc(NC(=O)c2ccnc(C(F)(F)F)c2)cc1-c1cnc(OC2CCOCC2)c(C2(O)COC2)c1 [Example 35, N-(3-(5-(3-hydroxyoxetan-3-yl)-6-((tetrahydro-2H-pyran-4-yl)oxy)pyridin-3-yl)-4-methylphenyl)-2-(trifluoromethyl)isonicotin-amide]
10	2.2	CCOc1ncc(-c2cc(NC(=O)c3cc(C(C)(C)N)cc(C(F)(F)F)c3)ccc2C)cc1C1(O)COC1 [Example 120, 3-(2-aminopropan-2-yl)-N-(3-(6-ethoxy-5-(3-hydroxyoxetan-3-yl)pyridin-3-yl)-4-methylphenyl)-5-(trifluoromethyl)benzamide]
1.22	0.165	CCOc1ncc(-c2cc(NC(=O)c3ccnc(C(C)(F)F)c3)ccc2C)cc1C1(O)COC1 [Example 123, 2-(1,1-difluoroethyl)-N-(3-(6-ethoxy-5-(3-hydroxyoxetan-3-yl)pyridin-3-yl)-4-methylphenyl)isonicotin-amide]
0.808	0.176	Cc1ccc(NC(=O)c2cccc(C(F)(F)F)c2)cc1-c1cnc(OC2CCOCC2)c(C2(O)COC2)c1 [Example 119, N-(3-(5-(3-hydroxyoxetan-3-yl)-6-((tetrahydro-2H-pyran-4-yl)oxy)pyridin-3-yl)-4-methylphenyl)-3-(trifluoromethyl)benzamide]
2.3	0.372	Cc1ccc(C(=O)Nc2cccc(C(F)(F)F)c2)cc1-c1cccc(C2(C)COC2)c1 [Example 26, 6-methyl-3′-(3-methyloxetan-3-yl)-N-(3-(trifluoromethyl)phenyl)-[1,1′-biphenyl]-3-carboxamide]
0.446	0.157	CCOc1ncc(-c2cc(NC(=O)c3ccnc(C(C)(C)C#N)c3)ccc2C)cc1C1(CF)COC1 [Example 31, 2-(2-cyanopropan-2-yl)-N-(3-(6-ethoxy-5-(3-(fluoromethyl)oxetan-3-yl)pyridin-3-yl)-4-methylphenyl)isonicotin-amide]
2.2	0.333	COc1ncc(-c2cc(NC(=O)c3cc(C(C)(F)F)ccn3)ccc2C)cc1C1(O)COC1 [Example 92, 4-(1,1-difluoroethyl)-N-(3-(5-(3-hydroxyoxetan-3-yl)-6-methoxypyridin-3-yl)-4-methylphenyl)picolinamide]
1.3	0.31	CCOc1ncc(-c2cc(NC(=O)c3ccnc(C(C)(C)F)c3)cnc2C)cc1C1(CF)COC1 [Example 131, N-(6′-ethoxy-5′-(3-(fluoromethyl)oxetan-3-yl)-2-methyl-[3,3′-bipyridin]-5-yl)-2-(2-fluoropropan-2-yl)isonicotinamide]
3.31	0.801	COc1ncc(-c2cc(C(=O)Nc3cccc(C(C)(C)C#N)c3)ccc2C)cc1C1(O)COC1 [Example 146, N-(3-(2-cyanopropan-2-yl)phenyl)-3-(5-(3-hydroxyoxetan-3-yl)-6-methoxypyridin-3-yl)-4-methylbenzamide]
0.58	0.146	COc1ncc(-c2cc(NC(=O)c3ccnc(C(C)(C)C#N)c3)ccc2C)cc1C1(CF)COC1 [Example 106, 2-(2-cyanopropan-2-yl)-N-(3-(5-(3-(fluoromethyl)oxetan-3-yl)-6-methoxypyridin-3-yl)-4-methylphenyl)isonicotin-amide]
20.5	7.63	Cc1ncc(NC(=O)c2ccnc(C(C)(C)C#N)c2)cc1-c1cnc(OC2CCOCC2)c(C2(O)COC2)c1 [Example 34, 2-(2-cyanopropan-2-yl)-N-(5′-(3-hydroxyoxetan-3-yl)-2-methyl-6′-((tetrahydro-2H-pyran-4-yl)oxy)-[3,3′-bipyridin]-5-yl)isonicotinamide]
1.85	0.354	Cc1ncc(NC(=O)c2cccc(C(F)(F)F)c2)cc1-c1cnc(OCCO)c(C2(F)COC2)c1 [Example 37, N-(5′-(3-fluorooxetan-3-yl)-6′-(2-hydroxyethoxy)-2-methyl-[3,3′-bipyridin]-5-yl)-3-(trifluoromethyl)benzamide]
1.3	0.229	COc1ncc(-c2cc(NC(=O)c3ccnc(C(C)(C)C#N)c3)ccc2C)cc1C1(F)COC1 [Example 30, 2-(2-cyanopropan-2-yl)-N-(3-(5-(3-fluorooxetan-3-yl)-6-methoxypyridin-3-yl)-4-methylphenyl)isonicotin-amide]
20.1	3.09	CCOc1ncc(-c2cc(NC(=O)c3cc(C(C)(C)N)cc(C(F)(F)F)c3)cnc2C)cc1C1(F)COC1 [Example 130, 3-(2-aminopropan-2-yl)-N-(6′-ethoxy-5′-(3-fluorooxetan-3-yl)-2-methyl-[3,3′-bipyridin]-5-yl)-5-(trifluoromethyl)benzamide]
2.14	0.804	Cc1ccc(NC(=O)c2ccnc(C(C)(C)C#N)c2)cc1-c1cnc(OC2CCOCC2)c(C2(O)COC2)c1 [Example 33, 2-(2-cyanopropan-2-yl)-N-(3-(5-(3-hydroxyoxetan-3-yl)-6-((tetrahydro-2H-pyran-4-yl)oxy)pyridin-3-yl)-4-methylphenyl)isonicotin-amide]
12	1.84	Cc1ncc(NC(=O)c2cccc(C(F)(F)F)c2)cc1-c1cnc(OCCO)c(C2(O)COC2)c1 [Example 36, N-(6′-(2-hydroxyethoxy)-5′-(3-hydroxyoxetan-3-yl)-2-methyl-[3,3′-bipyridin]-5-yl)-3-(trifluoromethyl)benzamide]
13.2	2.68	COc1ncc(-c2cc(NC(=O)c3cc(C(C)(C)N)cc(C(F)(F)F)c3)cnc2C)cc1C1(F)COC1 [Example 102, 3-(2-aminopropan-2-yl)-N-(5′-(3-fluorooxetan-3-yl)-6′-methoxy-2-methyl-[3,3′-bipyridin]-5-yl)-5-(trifluoromethyl)benzamide]
2.2	0.3	COc1ncc(-c2cc(NC(=O)c3ccnc(C4(C#N)CC4)c3)ccc2C)cc1C1(O)COC1 [Example 100]
2.73	0.373	COc1cc(-c2cc(NC(=O)c3cccc(C(F)(F)F)c3)ccc2C)cc(C2COC2)c1 [Example 21]
0.293	0.0844	COc1ncc(-c2cc(NC(=O)c3ccnc(C(C)(F)F)c3)ccc2C)cc1C1(CF)COC1 [Example 103, 2-(1,1-difluoroethyl)-N-(3-(5-(3-(fluoromethyl)oxetan-3-yl)-6-methoxypyridin-3-yl)-4-methylphenyl)isonicotin-amide]
2.28	0.372	CCOc1ncc(-c2cc(NC(=O)c3ccnc(C(F)(F)F)c3)ccc2C)cc1C1(O)COC1 [Example 124, N-(3-(6-ethoxy-5-(3-hydroxyoxetan-3-yl)pyridin-3-yl)-4-methylphenyl)-2-(trifluoromethyl)isonicotin-amide]
23.4	3.54	CCOc1nnc(-c2cc(NC(=O)c3cc(CN(C)C)cc(C(F)(F)F)c3)cnc2C)cc1C1(C)COC1 [Example 129, 3-((dimethylamino)methyl)-N-(5-(6-ethoxy-5-(3-methyloxetan-3-yl)pyridazin-3-yl)-6-methylpyridin-3-yl)-5-(trifluoromethyl)benzamide]
0.0593	0.0136	COc1ncc(-c2cc(NC(=O)c3cc(C(F)(F)F)ccn3)cnc2C)cc1C1(F)COC1 [Example 83, N-(5′-(3-fluorooxetan-3-yl)-6′-methoxy-2-methyl-[3,3′-bipyridin]-5-yl)-4-(trifluoromethyl)picolin-amide]
